The source of these data is ChEMBL document CHEMBL3817842, “Structure-based optimization and derivatization of 2-substituted quinolone-based non-nucleoside HCV NS5B inhibitors with submicromolar cellular replicon potency” (Bioorg Med Chem Lett, 2016).

Activity calls are given as the source filed them. The rule behind the calls is not given here. Some results are limits rather than exact numbers.

The nature of data set [1]: Cytotoxicity against human Huh7.5.1 cells infected with human HCV genotype 2a JFH1 assessed as cell viability at 5 uM incubated for 72 hrs by MTT assay. The settings on record: Huh7.5.1 cells infected with HCV genotype 2a JFH1, read-out: Activity. It is filed as cell-based, Huh-7.
The test system of data set [2] is Hepatitis C virus. The data set is described as follows: Antiviral activity against HCV genotype 2a JFH1 infected in human Huh7.5.1 cells at 5 uM incubated for 72 hrs by GFP based J399EAM HCV reporter assay. It is filed as functional, Hepacivirus hominis. To be noted: for inhibition at 5 µM: subtype 2a JFH1, Huh-7, 72 h; for inhibition: Hepacivirus hominis, subtype 2a JFH1, Huh-7.

A short description of data set [3]: Selectivity index, ratio of CC50 for human Huh7.5.1 cells infected with human HCV genotype 2a JFH1 to EC50 for HCV genotype 2a JFH1 infected in human Huh7.5.1 cells. On the set-up: species or system Huh-7.
Data set [4] in a line: Cytotoxicity against human Huh7.5.1 cells infected with human HCV genotype 2a JFH1 incubated for 72 hrs by MTT assay. Format: cell-based, Huh-7. To be noted: Huh7.5.1 cells infected with HCV genotype 2a JFH1. In general terms: Tetrazolium dyes change colour on reduction, which living cells bring about.
The test system of data set [5] is Hepatitis C virus. As to the kind of experiment: Antiviral activity against HCV genotype 2a JFH1 infected in human Huh7.5.1 cells incubated for 72 hrs by GFP based J399EAM HCV reporter assay. It is filed as functional, organism-based, Hepacivirus hominis. To be noted: subtype 2a JFH1, Huh-7, 72 h. Background: Reporter assays use an easily measured gene product as a stand-in for the process of interest.

As usually defined, the inhibition is how much of the control response was suppressed. Take `Cc1cc(NC(=O)c2ccccc2F)ccc1-n1ccc(=O)c2c(=O)n(Cc3ccc(Cl)cc3)ccc21`: in data set [1], the viability at 72 h, 5 µM was found to be 72.6%. The same compound had an inhibition at 5 µM in data set [2] of 55.2%.
`Nc1ccc(-n2ccc(=O)c3c(=O)n(CC4CC=CC4)ccc32)cc1C(F)(F)F`: the viability at 72 h, 5 µM in data set [1] came to 100%. The inhibition result in data set [2] is “inactive”.
One may read the CC50 as the concentration that lowers cell viability or growth by half. The low end stands for greater toxicity to the cells, the high end for lower toxicity to the cells. In general, EC50 refers to the concentration at which the effect is half-maximal. On to `CN1CCN(c2cc3c(cc2F)c(=O)c(C(=O)OCc2ccc(Cl)cc2)cn3Cc2ccc(Cl)cc2)CC1`, for which the “Ratio CC50/EC50” value in data set [3] was over 9.3. The same compound gave a CC50 at 72 h in data set [4] of over 40 µM. This compound had a concentration giving a half-maximal response (EC50) in data set [5] of 4.3 µM.
Turning to `O=C(Nc1ccc(F)cc1)Nc1ccc(-n2ccc(=O)c3c(=O)n(Cc4ccc(Cl)cc4)ccc32)c(C(F)(F)F)c1`, the viability at 72 h, 5 µM in data set [1] worked out at 75.4%. Further, in data set [2], the inhibition at 5 µM was 33.4%.
For the compound `COCc1c(C(=O)OCc2ccc(Cl)cc2)c(=O)c2cc(F)c(N3CCN(C)CC3)cc2n1Cc1ccc(Cl)cc1`, the “Ratio CC50/EC50” value in data set [3] came to 10.8. In addition, the midpoint of cytotoxicity in data set [4], the CC50 at 72 h, lay at 4.3 µM. This compound returned an EC50 in data set [5] of 0.4 µM.
In the case of `Nc1ccc(-n2ccc(=O)c3c(=O)n(Cc4ccc(Cl)cc4)ccc32)c(C(F)(F)F)c1`, the viability at 72 h, 5 µM in data set [1] came to 84.8%. In data set [2], this compound yielded an inhibition at 5 µM of 43.8%.
Regarding `Nc1ccc(-n2ccc(=O)c3c(=O)n(Cc4ccccc4)ccc32)cc1C(F)(F)F`, in data set [1], the viability at 72 h, 5 µM was 96.8%. Further, the inhibition entry in data set [2] was “inactive”.
As for `COc1cc2c(cc1F)c(=O)c(C(=O)OCc1ccc(Cl)cc1)c(C)n2Cc1ccc(Cl)cc1`, in data set [3], the “Ratio CC50/EC50” value is over 16.7. Moreover, the half-maximal cytotoxic concentration (CC50) at 72 h in data set [4] was over 40 µM. Further, the EC50 in data set [5] turned out to be 2.4 µM.
In the case of `Cc1ccc(C(=O)Nc2ccc(-n3ccc(=O)c4c(=O)n(Cc5ccc(Cl)cc5)ccc43)cc2)o1`, the viability at 72 h, 5 µM in data set [1] came to 88%. Also, the inhibition at 5 µM in data set [2] was 42.6%.
With `COCc1c(C(=O)OCc2ccc(Cl)cc2)c(=O)c2cc(F)c(OC)cc2n1Cc1ccc(Cl)cc1`, the “Ratio CC50/EC50” value in data set [3] is over 3.6. The CC50 at 72 h in data set [4] is over 40 µM. Besides, in data set [5], a half-maximal effect (EC50) was put at 11.1 µM.
Turning to `Nc1ccc(-n2ccc(=O)c3c(=O)n(Cc4ccc(Cl)cc4)ccc32)cc1Cl`, the “Ratio CC50/EC50” value in data set [3] worked out at 3. Also, the viability at 72 h, 5 µM in data set [1] was found to be 79.2%. Besides, at 5 µM the inhibition in data set [2] was 68%. This compound also gave a CC50 at 72 h in data set [4] of 19.4 µM. This compound gave an EC50 in data set [5] of 6.4 µM.
Take `O=c1ccn(-c2ccc([N+](=O)[O-])cc2C(F)(F)F)c2ccn(Cc3ccc(Cl)cc3)c(=O)c12`: the viability at 72 h, 5 µM in data set [1] was 88.2%. In addition, the inhibition at 5 µM in data set [2] was 58.6%.
For `O=C(Nc1ccc(-n2ccc(=O)c3c(=O)n(Cc4ccc(Cl)cc4)ccc32)c(C(F)(F)F)c1)c1cc(F)ccc1F`, in data set [3], the “Ratio CC50/EC50” value is listed as 1.1. Also, the viability at 72 h, 5 µM in data set [1] turned out to be 38.4%. This compound also had an inhibition at 5 µM in data set [2] of 98.2%. Further, in data set [4], the CC50 at 72 h came out at 1.5 µM. Further, it took 1.4 µM to reach a half-maximal effect in data set [5] (EC50).
With `CN1CCN(c2c(F)cc3c(=O)c(C(=O)OCc4ccc(Cl)cc4)c(-c4ccc(F)cc4)n(C4CC4)c3c2F)CC1`, the “Ratio CC50/EC50” value in data set [3] is on record as 5.5. For the same compound, it took 13.2 µM to reach half-maximal cytotoxicity in data set [4] (CC50 at 72 h). Further, the EC50 in data set [5] came out at 2.02 µM.
Regarding `O=C(Nc1ccc(-n2ccc(=O)c3c(=O)n(Cc4ccc(Cl)cc4)ccc32)cc1)c1ccccn1`, the viability at 72 h, 5 µM in data set [1] was found to be 88.7%. This compound also came in with an inhibition at 5 µM in data set [2] of 41.7%.
`Cc1c(C(=O)OCc2ccc(Cl)cc2)c(=O)c2cc(F)c(N3CCN(C)CC3)cc2n1Cc1ccc(Cl)cc1`: the “Ratio CC50/EC50” value in data set [3] was found to be 4.6. This compound also had a CC50 at 72 h in data set [4] of 33.1 µM. In data set [5], this compound displayed an EC50 of 7.2 µM.
For the compound `CCc1c(C(=O)OCc2ccc(Cl)cc2)c(=O)c2cc(F)c(OC)cc2n1Cc1ccc(Cl)cc1`, the “Ratio CC50/EC50” value in data set [3] was determined as 7.2. In data set [4], this compound had a CC50 at 72 h of 26.8 µM. A half-maximal response in data set [5] (EC50) required 3.7 µM.
For the compound `Nc1ccc(-n2ccc(=O)c3c(=O)n(Cc4ccc(Cl)cc4)ccc32)cc1C(F)(F)F`, the “Ratio CC50/EC50” value in data set [3] came out at 7.2. Also, the viability at 72 h, 5 µM in data set [1] was 74.3%. Also, the inhibition at 5 µM in data set [2] is 78.9%. Moreover, the midpoint of cytotoxicity in data set [4], the CC50 at 72 h, lay at 17.9 µM. In data set [5], this compound returned a 50% effective concentration (EC50) of 2.5 µM.
On to `Cc1ccc(Cn2ccc3c(c(=O)ccn3-c3ccc(N)c(C(F)(F)F)c3)c2=O)cc1`, for which the viability at 72 h, 5 µM in data set [1] came to 100%. The compound further came in with an inhibition at 5 µM in data set [2] of 38.7%.
Regarding `Cc1ccc(Cn2ccc3c(c(=O)ccn3-c3ccc(N)c(C(F)(F)F)c3)c2=O)c(C)c1`, the viability at 72 h, 5 µM in data set [1] came to 99.8%. Moreover, at 5 µM the inhibition in data set [2] was 51.7%.
For `O=C(Nc1ccc(-n2ccc(=O)c3c(=O)n(Cc4ccc(Cl)cc4)ccc32)cc1)c1cc(F)ccc1F`, the “Ratio CC50/EC50” value in data set [3] was determined as 1.4. Also, the viability at 72 h, 5 µM in data set [1] was determined as 46.1%. In addition, the inhibition at 5 µM in data set [2] is 95.7%. In data set [4], this compound yielded a CC50 at 72 h of 6.4 µM. This compound registered an EC50 in data set [5] of 4.6 µM.
For `O=C(Nc1ccc(F)cc1)Nc1ccc(-n2ccc(=O)c3c(=O)n(Cc4ccc(Cl)cc4)ccc32)cc1`, the viability at 72 h, 5 µM in data set [1] was found to be 98.4%. Further, testing at 5 µM in data set [2] gave an inhibition of 18.8%.
The corresponding values for `Nc1ccc(-n2ccc(=O)c3c(=O)n(Cc4ccc(Cl)cc4)ccc32)cc1` are 94.6% and 39.8%.
As for `COCc1c(C(=O)OCc2ccc(Cl)cc2)c(=O)c2cc(F)c(N3CCN(Cc4ccccc4)CC3)cc2n1Cc1ccc(Cl)cc1`, in data set [3], the “Ratio CC50/EC50” value was over 8.2. The same compound registered a CC50 at 72 h in data set [4] of over 40 µM. This compound also gave an EC50 in data set [5] of 4.9 µM.
For `Cc1cc(NC(=O)Nc2ccc(F)cc2)ccc1-n1ccc(=O)c2c(=O)n(Cc3ccc(Cl)cc3)ccc21`, the viability at 72 h, 5 µM in data set [1] was found to be 70.4%. In data set [2], this compound displayed an inhibition at 5 µM of 53.1%.
For the compound `O=C(Nc1ccc(-n2ccc(=O)c3c(=O)n(Cc4ccc(Cl)cc4)ccc32)cc1)c1ncccc1Cl`, the viability at 72 h, 5 µM in data set [1] came out at 68.6%. The inhibition at 5 µM in data set [2] came out at 52.3%.
Turning to `N#Cc1ccc(-n2ccc(=O)c3c(=O)n(Cc4ccc(Cl)cc4)ccc32)cc1C(F)(F)F`, in data set [1], the viability at 72 h, 5 µM came to 86.4%. Besides, the inhibition result in data set [2] was “inactive”.
On to `Cc1cc(N)ccc1-n1ccc(=O)c2c(=O)n(Cc3ccc(Cl)cc3)ccc21`, for which, in data set [1], the viability at 72 h, 5 µM worked out at 91.6%. For the same compound, in data set [2], testing at 5 µM gave an inhibition of 52%.
Turning to `O=c1ccn(-c2ccc([N+](=O)[O-])c(C(F)(F)F)c2)c2ccn(Cc3ccc(Cl)cc3)c(=O)c12`, the “Ratio CC50/EC50” value in data set [3] is 2.2. Further, in data set [1], the viability at 72 h, 5 µM is 75.6%. The compound further gave an inhibition at 5 µM in data set [2] of 65.7%. In data set [4], this compound yielded a CC50 at 72 h of 10.6 µM. The compound also registered an EC50 in data set [5] of 4.8 µM.
Turning to `Nc1ccc(-n2ccc(=O)c3c(=O)n(CC4CCCCC4)ccc32)cc1C(F)(F)F`, the viability at 72 h, 5 µM in data set [1] was 100%. Moreover, 5 µM produced 7.7% inhibition in data set [2].
